For one test, the target named is T1, glucocorticoid receptor (Homo sapiens, UniProt P04150).
T1 construct: containing 50-200 ug of A549 cell extract and 1.86 nM; host or cells: A549 human lung epithelial cells
T1 sequence (P04150 1-777): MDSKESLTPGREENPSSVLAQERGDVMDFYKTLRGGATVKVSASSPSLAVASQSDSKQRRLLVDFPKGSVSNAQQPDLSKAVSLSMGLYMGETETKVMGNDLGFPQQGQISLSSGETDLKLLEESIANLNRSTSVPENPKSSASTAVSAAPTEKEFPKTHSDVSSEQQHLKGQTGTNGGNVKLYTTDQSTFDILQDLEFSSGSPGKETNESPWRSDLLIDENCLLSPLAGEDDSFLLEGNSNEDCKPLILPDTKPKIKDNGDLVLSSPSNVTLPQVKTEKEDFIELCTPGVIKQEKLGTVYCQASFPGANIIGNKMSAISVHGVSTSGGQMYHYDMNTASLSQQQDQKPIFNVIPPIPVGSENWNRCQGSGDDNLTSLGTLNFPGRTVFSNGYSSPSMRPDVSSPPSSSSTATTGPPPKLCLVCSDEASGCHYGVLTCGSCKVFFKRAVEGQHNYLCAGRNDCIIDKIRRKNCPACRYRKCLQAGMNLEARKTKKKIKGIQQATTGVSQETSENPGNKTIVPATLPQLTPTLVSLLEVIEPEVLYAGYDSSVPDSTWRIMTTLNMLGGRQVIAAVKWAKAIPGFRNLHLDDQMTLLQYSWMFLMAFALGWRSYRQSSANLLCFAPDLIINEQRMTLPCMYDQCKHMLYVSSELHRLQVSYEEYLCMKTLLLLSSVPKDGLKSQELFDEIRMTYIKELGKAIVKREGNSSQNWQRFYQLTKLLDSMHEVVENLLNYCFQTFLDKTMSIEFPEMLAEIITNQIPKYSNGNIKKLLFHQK
Nature of the test: Glucocorticoid Receptor Binding Assay (Method 1), [3H]-dexamethasone competition, A549 cell extract. The conditions noted are these: 1.86 nM [3H]-dexamethasone, read-out: GR Ki (nM) Method 1. As to the method: Glucocorticoid Receptor Binding Assay (Method 1):
A549 human lung epithelial cells (ATCC) are grown at a scale where gram quantity cell pellets are obtained. Harvested cell pellets are washed twice in cold phosphate buffered saline, centrifuged, and resuspended in cold assay binding buffer. The assay binding buffer consists of 10% glycerol, 50 mM Tris-HCl (pH7.2), 75 mM sodium chloride, 1.5 mM magnesium chloride, 1.5 mM EDTA, and 10 mM sodium molybdate. Cell suspensions were lysed via sonication, centrifuged, and the “extract” supernatant is snap frozen and stored at −80 C until needed.
Incubations are carried out at 4 degrees Celsius for 16 hours. After incubation, 70 ul of 3× dextran-coated charcoal solution is added to each reaction, mixed, and incubated for 8 minutes at RT. 3×-dextran-coated charcoal solution consists of 250 ml assay binding buffer, 3.75 g Norit A charcoal (Sigma), and 1.25 g dextran T-70 (Amersham). Charcoal/unbound radioligand complexes are removed by centrifugation of the plate and 140 ul of supernatant from each well is transferred to another 96 well Optiplate (Packard Instruments). 200 ul of Microscint-20 scinillant (Packard Instruments) is added to each well and amount of receptor bound radioligand is determined using Packard Instruments TopCount instrument.

A further test has as its target T2, human MR (Homo sapiens, UniProt P08235).
T2 construct: The full length human MR gene is cloned from a human kidney or human brain cDNA library; inferred from own knowledge of the pAcHLT vector (N); made in house; host or cells: Sf9 insect cells (baculovirus)
T2 sequence (P08235 1-984): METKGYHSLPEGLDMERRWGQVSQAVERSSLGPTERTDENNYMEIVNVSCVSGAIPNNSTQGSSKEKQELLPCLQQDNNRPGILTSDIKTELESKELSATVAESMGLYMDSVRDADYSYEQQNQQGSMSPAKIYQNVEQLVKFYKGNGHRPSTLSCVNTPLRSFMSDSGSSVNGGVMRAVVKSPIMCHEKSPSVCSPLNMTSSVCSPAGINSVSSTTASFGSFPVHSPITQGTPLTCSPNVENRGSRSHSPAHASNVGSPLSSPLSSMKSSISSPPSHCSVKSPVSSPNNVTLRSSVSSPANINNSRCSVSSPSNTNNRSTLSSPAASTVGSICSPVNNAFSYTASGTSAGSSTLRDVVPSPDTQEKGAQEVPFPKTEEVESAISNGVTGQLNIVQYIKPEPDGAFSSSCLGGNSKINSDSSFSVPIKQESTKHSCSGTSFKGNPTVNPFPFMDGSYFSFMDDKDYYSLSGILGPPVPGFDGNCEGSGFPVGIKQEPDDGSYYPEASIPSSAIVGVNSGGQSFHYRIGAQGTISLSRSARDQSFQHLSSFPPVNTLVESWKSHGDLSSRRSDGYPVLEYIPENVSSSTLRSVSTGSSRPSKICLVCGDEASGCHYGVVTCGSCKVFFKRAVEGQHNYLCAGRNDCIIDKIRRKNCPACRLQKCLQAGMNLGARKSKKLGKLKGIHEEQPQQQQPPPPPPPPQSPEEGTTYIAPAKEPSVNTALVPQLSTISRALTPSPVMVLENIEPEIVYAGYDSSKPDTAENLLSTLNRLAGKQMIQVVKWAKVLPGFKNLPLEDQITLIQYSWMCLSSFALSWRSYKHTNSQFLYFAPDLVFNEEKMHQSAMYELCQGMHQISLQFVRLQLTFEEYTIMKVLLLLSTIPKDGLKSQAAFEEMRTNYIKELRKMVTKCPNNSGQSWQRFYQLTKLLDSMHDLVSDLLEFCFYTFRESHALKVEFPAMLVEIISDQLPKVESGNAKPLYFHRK
Put plainly: Mineralocorticoid Receptor Binding Assay (Method 1), [3H]-aldosterone competition. The following applies: 0.5 nM [3H]-aldosterone, human MR expressed in Sf9 cells. The essentials:
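Full-length human MR expressed in Sf9 cells via baculovirus; lysate supernatant (about 20-25 μg protein) incubated with 0.5 nM [3H]-aldosterone and test compound for about 16 h at 4° C. Buffer was Tris/molybdate/phosphate/pyrophosphate with 10% glycerol, pH 7.5; filter-bound complex counted by scintillation.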

As usually defined, the Ki is the equilibrium dissociation constant of an inhibitor or competing ligand from its target. Take `COc1ccc(C(C)(c2ccccc2)c2c[nH]c3c(C)cccc23)cc1` (stereo not shown) [Example 28, 3-[1-(4-Methoxy-phenyl)-1-phenyl-ethyl]-7-methyl-1H-indole]: the inhibition constant (Ki) on glucocorticoid receptor was below 1000 nM; at human MR it was below 500 nM.
Regarding `CCc1ccc(C(CC)(CC)c2c[nH]c3c(NS(C)(=O)=O)cccc23)cc1` [Example 66, N-{3-[1-Ethyl-1-(4-ethyl-phenyl)-propyl]-1H-indol-7-yl}-methanesulfonamide], the Ki at glucocorticoid receptor and at human MR was below 500 nM each time.
Regarding `CCC(CC)(c1ccccc1F)c1c[nH]c2c(NS(C)(=O)=O)cccc12` [Example 68, N-{3-[1-Ethyl-1-(2-fluoro-phenyl)-propyl]-1H-indol-7-yl}-methanesulfonamide], the inhibition constant (Ki) at glucocorticoid receptor and on human MR was below 500 nM in each case.
As for `CCC(CC)(c1ccc(C(F)(F)F)cc1)c1c[nH]c2c(NS(C)(=O)=O)cccc12` [Example 63, N-{3-[1-Ethyl-1-(4-trifluoromethyl-phenyl)-propyl]-1H-indol-7-yl}-methanesulfonamide], the Ki on glucocorticoid receptor and at human MR was below 500 nM in each case.
Regarding `CCC(CC)(c1cc2cc(OC)ccc2o1)c1c[nH]c2c(NS(C)(=O)=O)cccc12` [Example 29, N-{3-[1-Ethyl-1-(5-methoxy-benzofuran-2-yl)-propyl]-1H-indol-7-yl}-methanesulfonamide], the inhibition constant (Ki) at glucocorticoid receptor is below 1000 nM; on human MR, below 500 nM.
In the same order, the values of `Cc1ccc(C(C)(C)c2c[nH]c3c(N)cccc23)cc1` [Example 41, 3-(1-Methyl-1-p-tolyl-ethyl)-1H-indol-7-ylamine] are below 10000 nM and below 1000 nM.
Regarding `CCCC(C)(c1ccccc1OC)c1c[nH]c2c(NS(C)(=O)=O)cccc12` (stereo not shown) [Example 44, N-{3-[1-(2-Methoxy-phenyl)-1-methyl-butyl]-1H-indol-7-yl}-methanesulfonamide], the Ki at glucocorticoid receptor and at human MR was below 500 nM in each case.
Turning to `O=C(O)CCn1cc(C(c2ccccc2)(c2ccccc2)c2ccccc2)c2ccccc21` [Example 52, 3-(3-Trityl-indol-1-yl)-propionic acid], the inhibitory constant (Ki) on glucocorticoid receptor and at human MR was below 10000 nM in each case.
`CC(C)(c1ccc(-c2ccccc2)cc1)c1c[nH]c2c(NS(C)(=O)=O)cccc12` [Example 39, N-[3-(1-Biphenyl-4-yl-1-methyl-ethyl)-1H-indol-7-yl]-methanesulfonamide]: the values for the inhibitory constant (Ki) on glucocorticoid receptor and at human MR were below 1000 nM and below 500 nM, respectively.
Take `CC(C)(c1csc2ccccc12)c1c[nH]c2c(NS(C)(=O)=O)cccc12` [Example 14, N-[3-(1-Benzo[b]thiophen-3-yl-1-methyl-ethyl)-1H-indol-7-yl]-methanesulfonamide]: the Ki at glucocorticoid receptor and on human MR was below 500 nM each time.
For `Cc1cccc2c(C3(c4ccc(F)cc4)CCCCC3)c[nH]c12` [Example 32, 3-[1-(4-Fluoro-phenyl)-cyclohexyl]-7-methyl-1H-indole], the Ki at glucocorticoid receptor is below 10000 nM; on human MR, below 500 nM.
As to `CC(C)(c1ccccc1)c1c[nH]c2c(NS(C)(=O)=O)cccc12` [Example 78, N-[3-(1-Methyl-1-phenyl-ethyl)-1H-indol-7-yl]-methanesulfonamide], the Ki at glucocorticoid receptor and on human MR was below 500 nM throughout.
For `CCC(CC)(c1ccc(C)cc1C)c1c[nH]c2c(NS(C)(=O)=O)cccc12` [Example 60, N-{3-[1-(2,4-Dimethyl-phenyl)-1-ethyl-propyl]-1H-indol-7-yl}-methanesulfonamide], the Ki on glucocorticoid receptor and on human MR was below 500 nM each time.
As for `CCC(CC)(c1cccc(F)c1)c1c[nH]c2c(NS(C)(=O)=O)cccc12` [Example 72, N-{3-[1′-Ethyl-1-(3-fluoro-phenyl)-propyl]-1H-indol-7-yl}-methanesulfonamide], the Ki at glucocorticoid receptor and on human MR was below 500 nM each time.
For the molecule `Cc1ccc(C(C)(C)c2c[nH]c3c(NS(C)(=O)=O)cccc23)cc1` [Example 12, N-[3-(1-Methyl-1-p-tolyl-ethyl)-1H-indol-7-yl]-methanesulfonamide], the Ki on glucocorticoid receptor and on human MR was below 500 nM each time.
On to `COc1ccc(C(C)(c2c[nH]c3c(C)cccc23)C2CC2)cc1` (stereo not shown) [Example 24, 3-[1-Cyclopropyl-1-(4-methoxy-phenyl)-ethyl]-7-methyl-1H-indole], for which the Ki on glucocorticoid receptor and on human MR was below 500 nM throughout.
For `COc1ccc(C(C)(C)c2c[nH]c3c(NS(C)(=O)=O)cccc23)cc1` [Example 55, N-{3-[1-(4-Methoxy-phenyl)-1-methyl-ethyl]-1H-indol-7-yl}-methanesulfonamide], the Ki at glucocorticoid receptor and at human MR was below 500 nM each time.
For the molecule `Cc1cccc2c(C(C)(c3ccc(F)cc3)C3CC3)c[nH]c12` (stereo not shown) [Example 40, 3-[1-Cyclopropyl-1-(4-fluoro-phenyl)-ethyl]-7-methyl-1H-indole], the Ki at glucocorticoid receptor and at human MR was below 500 nM throughout.
Regarding `CS(=O)(=O)Nc1cccc2c(C3(c4ccccc4)CCCC3)c[nH]c12` [Example 21, N-[3-(1-Phenyl-cyclopentyl)-1H-indole-7-yl]-methanesulfonamide], the inhibitory constant (Ki) on glucocorticoid receptor and at human MR was below 500 nM in each case.
Turning to `CCC(CC)(c1cccc(C)c1)c1c[nH]c2c(NS(C)(=O)=O)cccc12` [Example 71, N-[3-(1-Ethyl-1-m-tolyl-propyl)-1H-indol-7-yl]-methanesulfonamide], the Ki on glucocorticoid receptor and at human MR was below 500 nM in each case.
Turning to `CCC(CC)(c1cc2ccccc2o1)c1c[nH]c2c(NS(C)(=O)=O)cccc12` [Example 2, N-[3-(1-Benzofuran-2-yl-1-ethyl-propyl)-1H-indol-7-yl]-methanesulfonamide], the Ki at glucocorticoid receptor and on human MR was below 500 nM each time.
As to `CCCC(C)(c1ccc(F)cc1)c1c[nH]c2c(NS(C)(=O)=O)cccc12` (stereo not shown) [Example 7, N-{3-[1-(4-Fluoro-phenyl)-1-methyl-butyl]-1H-indol-7-yl}-methanesulfonamide], the Ki at glucocorticoid receptor and on human MR was below 500 nM throughout.
Take `O=C(O)Cn1cc(C(c2ccccc2)(c2ccccc2)c2ccccc2)c2ccccc21` [Example 51, (3-Trityl-indol-1-yl)-acetic acid]: the values for the Ki on glucocorticoid receptor and on human MR were below 10000 nM and below 1000 nM, respectively.

(Values after US20060235222A1, “Indole-derivative modulators of steroid hormone nuclear receptors” (ELI LILLY AND COMPANY, priority 2003, published 2006).)
